Eleven molecules from US7700637B2, “Organic compounds” (Novartis AG, priority 2003, dated 2010) can be followed below.

Data set [1] addresses T1, PPARα receptor (GST-hPPARα LBD) (Homo sapiens, UniProt Q07869).
T1 construct: made in house; host or cells: E. coli BL21 (DE3)
T1 sequence (Q07869 167-468): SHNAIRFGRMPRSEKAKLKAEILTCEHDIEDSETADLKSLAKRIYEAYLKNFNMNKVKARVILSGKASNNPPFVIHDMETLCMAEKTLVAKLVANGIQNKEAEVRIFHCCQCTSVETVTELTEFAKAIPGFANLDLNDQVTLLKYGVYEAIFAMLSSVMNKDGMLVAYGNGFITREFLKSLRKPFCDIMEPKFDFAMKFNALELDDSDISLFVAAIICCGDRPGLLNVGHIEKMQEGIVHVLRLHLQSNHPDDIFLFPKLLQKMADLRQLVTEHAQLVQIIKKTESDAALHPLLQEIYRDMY
The experiment in a line: PPARα receptor functional binding assay (CARLA, TR-FRET). The format is biochemical. To be noted: SRC-1 peptide recruitment. How it is done:
(§1) The in vitro functional binding to the PPARα, PPARδ and PPARγ receptors is determined as follows:
(§2) The functional binding assays for the PPARα, PPARδ and PPARγ receptors are a variation of the coactivator-dependent receptor ligand assay (CARLA) (Krey et al., Molecular Endocrinology 1997, 11, 779-791). The present CARLA assays use a TR-FRET detection method previously reviewed (Hemmila, J. Biomol. Screening 1999, 4, 303-307; Mathis, J. Biomol. Screening 1999, 4, 309-313). All assays included 3 nM of the glutathione-S-transferase (GST) fusion proteins of either the hPPARα ligand binding domain (LBD) (amino acids 167-468) (GST-hPPARα LBD), GST-hPPARδ LBD (amino acids 139-442) or GST-hPPARγ LBD (amino acids 175-476); 3 nM Eu-labelled anti-GST antibody (Wallac); 30 nM biotinylated steroid receptor coactivator-1 (SRC-1) peptide (an N-terminal biotinylated peptide, […], derived from amino acids 676-700 of SRC-1); and 10 nM streptavidin-labelled allophycocyanin (APC; Prozyme). […] This brings the Eu-labelled anti-GST antibody and the strepavidin-labelled APC in close proximity, thereby facilitating fluorescence energy transfer. […] After mixing all components, the reaction mixture stands for 3 h at RT before reading the TR-FRET signal on a Wallac Victor 2 plate reader (measuring the ratio of signals at 665 nm and 620 nm). […]
(In TR-FRET formats the signal depends on donor and acceptor labels being close together.)

Data set [2] deals with T2, PPARγ receptor (GST-hPPARγ LBD) (Homo sapiens, UniProt P37231).
T2 construct: GST-hPPARγ LBD (amino acids 175-476); made in house; host or cells: E. coli BL21 (DE3)
T2 sequence (P37231 175-476 isoform P37231-2): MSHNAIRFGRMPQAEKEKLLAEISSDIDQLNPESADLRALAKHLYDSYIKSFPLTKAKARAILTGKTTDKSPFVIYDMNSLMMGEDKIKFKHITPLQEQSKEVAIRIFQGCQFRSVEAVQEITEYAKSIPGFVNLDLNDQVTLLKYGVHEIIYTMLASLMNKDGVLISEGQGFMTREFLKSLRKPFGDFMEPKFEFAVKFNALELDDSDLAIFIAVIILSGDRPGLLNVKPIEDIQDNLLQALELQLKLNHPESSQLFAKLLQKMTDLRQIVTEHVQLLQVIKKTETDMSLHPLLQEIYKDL
The experiment in a line: PPARγ receptor functional binding assay (CARLA, TR-FRET). It counts as biochemical. The note with it: SRC-1 peptide recruitment. The method, then: as §1, §2

For data set [3], the target named is T3, PPARδ receptor (GST-hPPARδ LBD) (Homo sapiens, UniProt Q03181).
T3 construct: GST-hPPARδ LBD (amino acids 139-442); made in house; host or cells: E. coli BL21 (DE3)
T3 sequence (Q03181 139-441 limits assumed): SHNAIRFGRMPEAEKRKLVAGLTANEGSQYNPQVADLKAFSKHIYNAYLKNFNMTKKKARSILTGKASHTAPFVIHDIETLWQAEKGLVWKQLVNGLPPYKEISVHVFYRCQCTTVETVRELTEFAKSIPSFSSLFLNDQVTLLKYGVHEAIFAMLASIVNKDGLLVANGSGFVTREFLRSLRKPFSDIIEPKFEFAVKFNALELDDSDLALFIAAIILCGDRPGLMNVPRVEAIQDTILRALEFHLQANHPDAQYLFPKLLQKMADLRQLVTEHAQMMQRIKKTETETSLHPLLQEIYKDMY
T3 sequence (Q15788 676-700 partner limits assumed): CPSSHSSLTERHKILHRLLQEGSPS
Kind of data set: PPARδ receptor functional binding assay (CARLA, TR-FRET). It counts as biochemical. The note with it: SRC-1 peptide recruitment. The method, then:
as §1, §2

A further data set relates to C57BL ob/ob mice. The experiment in a line: glucose and insulin lowering activity in vivo in ob/ob mice. The note with it: daily dose of about 30 mg/kg p.o. in the ob/ob mice. The method, then:
The glucose and insulin lowering activity in vivo can be evaluated as follows:
Adult male C57BL ob/ob mice (Jackson Lab, Bar Harbor, Me.) at the age of 11 weeks are housed six per cage in a reversed light cycle room (light on from 6:00 p.m. to 6:00 a.m.) and given access to Purina rodent chow and water ad libitum. On day 1 tail blood samples are taken at 8:00 am and plasma glucose levels are determined. The animals are randomly assigned to the control and compound groups. The means of plasma glucose values of the groups were matched. Animals are then orally dosed with vehicle (0.5% carboxymethyl-cellulose with 0.2% Tween-80) or compounds (at 30 mg/kg) in vehicle. The mice are dosed daily for a total of 3 days. On day 4 basal blood samples are taken. The plasma samples are analyzed for glucose concentrations using a YS12700 Dual Channel Biochemistry Analyzer (Yellow Springs Instrument Co., Yellow Springs, Ohio) and insulin concentrations using an ELISA assay.

A word on the EC50: it is the concentration needed to bring the measured effect to its halfway point. Usually melting point stands for the temperature of the solid-liquid transition.

Consider `Cc1cccc(NS(=O)(=O)c2ccc(OCc3nc(-c4ccccc4)oc3C)cc2)c1C(=O)O` [Example 1, 2-Methyl-6-[4-(5-methyl-2-phenyl-oxazol-4-ylmethoxy)-benzenesulfonylamino]-benzoic acid], for which the melting point was 167 to 170 °C. Besides, the EC50 in data set [1] was about 8 nM. The EC50 in data set [2] is about 5 nM. For the same molecule, in data set [3], the EC50 is about 3500 nM. Moreover, in the data set on C57BL ob/ob mice, the serum glucose levels entry is “significantly lowers” and the serum insulin levels result is reported as “significantly lowers”.
Consider `Cc1ccc(C(=O)O)c(NS(=O)(=O)c2ccc(OCc3nc(-c4ccccc4)oc3C)cc2)c1` [Compd 4-12, 4-Methyl-2-[4-(5-methyl-2-phenyl-oxazol-4-ylmethoxy)-benzenesulfonylamino]-benzoic acid], for which the melting point was in the range of 207 to 208 °C.
Still for that read-out and setting: the same measure for `Cc1oc(-c2ccccc2)nc1COCc1ccc(COc2cc(Cl)ccc2C(=O)O)cc1` [Compd 21-19, 4-Chloro-2-[4-(5-methyl-2-phenyl-oxazol-4-ylmethoxymethyl)-benzyloxy]-benzoic acid]: 151 °C; for `Cc1oc(-c2ccc(F)cc2)nc1COc1ccc(S(=O)(=O)Nc2cc(Cl)ccc2C(=O)O)cc1` [Compd 4-5, 4-Chloro-2-{4-[2-(4-fluoro-phenyl)-5-methyl-oxazol-4-ylmethoxy]-benzenesulfonylamino}-benzoic acid]: 223 to 225 °C; for `Cc1oc(-c2ccccc2)nc1COc1ccc(S(=O)(=O)Nc2cc(Cl)ccc2C(=O)O)cc1` [Compd 4-7, 4-Chloro-2-[4-(5-methyl-2-phenyl-oxazol-4-ylmethoxy)-benzenesulfonylamino]-benzoic acid]: 98 to 100 °C.
The same measure, in the same setting: the same measure for `Cc1oc(-c2ccccc2)nc1CSc1ccc(S(=O)(=O)Nc2ccccc2C(=O)O)cc1` [Example 3, 2-[4-(5-Methyl-2-phenyl-oxazol-4-ylmethylsulfanyl)-benzenesulfonylamino]-benzoic acid]: 182 to 184 °C; for `Cc1oc(-c2ccccc2)nc1CCOc1ccc(S(=O)(=O)Nc2cc(Cl)ccc2C(=O)O)cc1` [Example 2, 4-Chloro-2-{4-[2-(5-methyl-2-phenyl-oxazol-4-yl)-ethoxy]-benzenesulfonylamino}-benzoic acid]: 223 to 225 °C.
Molecule `Cc1oc(-c2ccccc2)nc1CCOc1ccc(S(=O)(=O)Nc2ccccc2C(=O)O)cc1` [Compd 4-21, 2-{4-[2-(5-Methyl-2-phenyl-oxazol-4-yl)-ethoxy]-benzenesulfonylamino}-benzoic acid] returned a melting point of 136 to 138 °C.
`Cc1oc(-c2ccccc2)nc1COc1ccc(COc2cc(Cl)ccc2C(=O)O)cc1` [Compd 21-11, 4-Chloro-2-[4-(5-methyl-2-phenyl-oxazol-4-ylmethoxy)-benzyloxy]-benzoic acid] yielded a melting point of 155 to 156 °C.
With `Cc1oc(-c2ccccc2)nc1COc1ccc(S(=O)(=O)Nc2cccc(C(F)(F)F)c2C(=O)O)cc1` [Compd 4-6, 2-[4-(5-Methyl-2-phenyl-oxazol-4-ylmethoxy)-benzenesulfonylamino]-6-trifluoromethyl-benzoic acid], the melting point was 197 to 198 °C.
The same measure, in the same setting: the result for `Cc1oc(-c2ccccc2)nc1COCc1cccc(COc2cc(Cl)ccc2C(=O)O)c1` [Example 18, 4-Chloro-2-[3-(5-methyl-2-phenyl-oxazol-4-ylmethoxymethyl)-benzyloxy]-benzoic acid] reads 137 °C.
